For orientation: chromatographic logP means lipophilicity estimated from chromatographic retention. Low values mean a more hydrophilic compound, high ones a more lipophilic compound.

The first data set is described as follows: Log P by HPLC on reversed phase columns (EEC directive 79/831 Annex V.A8; methods [a], [b], [c]). It is filed as physicochemical.
Conditions: not given
The essentials:
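Log P derived from retention times, interpolated linearly between bracketing straight-chain alkan-2-ones (3–16 carbons) of known Log P. Eluents ran acetonitrile 10% to 95% against water with 0.1% formic acid ([a], acidic), 0.001 M ammonium acetate ([b], neutral) or 0.1% phosphoric acid ([c], acidic); UV read-out.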
Regarding `CC(O)(Cn1cncc1C#N)c1cnc(Oc2ccc(Cl)cc2F)cc1C(F)(F)F` (stereo not drawn) [I-233], the LogP was 3.29^[a].

Turning to `CC(C)(C)C(O)(Cn1cncc1C#N)c1cc(F)cc(F)c1` (stereo not drawn) [I-457], the LogP was 2.64^[a].

On to `OC(Cn1cncc1C(F)(F)F)c1ccc(Oc2ccc(Cl)cc2)cc1F` (stereo not drawn) [I-90], for which the LogP was 3.4^8[a].

Take `N#Cc1cncn1CC(O)c1cnc(Oc2ccc(Cl)cc2)cc1C(F)(F)F` (stereo not drawn) [I-120]: the LogP is 2.87^[a].

Consider `N#Cc1cncn1CC(O)(c1ccc(F)nc1F)C1(Cl)CC1` (stereo not drawn) [I-550], for which the LogP is 1.98^[a].

Take `N#Cc1cncn1CC(O)c1ccc(Oc2ccc(Cl)cc2)cc1Br` (stereo not drawn) [I-59]: the LogP is 3.21^[a].

For `C[Si](C)(CCC(O)(Cn1cncc1C#N)C1(Cl)CC1)c1ccccc1` (stereo not drawn) [I-667], the LogP is 3.70^[a].

Turning to `N#Cc1cncn1CC(O)(CC1CC1)c1cc(F)c(Cl)c(F)c1` (stereo not drawn) [I-499], the LogP was 2.73^[a].

Turning to `N#Cc1cncn1CC(O)c1ccc(Oc2ccc(S(F)(F)(F)(F)F)cc2)nc1Cl` (stereo not drawn) [I-68], the LogP is 3.15^[a].

For the molecule `CCOC(Cn1cncc1Cl)c1ccc(Oc2ccc(Br)cc2)cc1Br` (stereo not drawn) [I-58], the LogP is 4.21^[a].

With `N#Cc1cncn1CC(O)(c1cc(F)c(Cl)cc1Cl)C1(Cl)CC1` (stereo not drawn) [I-585], the LogP is 2.75^[a].

As for `N#Cc1cncn1CC(=O)c1ccc(Oc2ccc(S(F)(F)(F)(F)F)cc2)nc1C(F)(F)F` [IX-135], the LogP is 3.55^[a].

Take `CC(C)C(O)(Cn1cncc1C#N)c1ccc(Cl)cc1Cl` (stereo not drawn) [I-300]: the LogP is 2.92^[a].

For the molecule `CCCC(O)(Cn1cncc1C#N)c1ccc(C2CC2)cc1Cl` (stereo not drawn) [I-407], the LogP was 3.19^[a].

For the molecule `CCCCCC(O)(Cn1cncc1C#N)c1ccccc1C(F)(F)F` (stereo not drawn) [I-346], the LogP was 3.23^[a].

Take `CC(O)(Cn1cncc1C#N)c1ccc(Oc2ccc(Cl)cc2)cc1Cl` (stereo not drawn) [I-182]: the LogP was 3.51^[a].

With `C[Si](C)(C)C#CC(O)(Cn1cncc1C#N)C1(Cl)CC1` (stereo not drawn) [I-318], the LogP was 2.76^[a].

With `N#Cc1cncn1CC(O)(c1ccc(Br)cc1Cl)C1(Cl)CC1` (stereo not drawn) [I-333], the LogP is 2.73^[a].

Regarding `CCCCCC(O)(Cn1cncc1C#N)c1ccc(Cl)cc1` (stereo not drawn) [I-286], the LogP was 3.10^[a].

Take `N#Cc1cncn1CC(O)(c1cccc(Cl)c1Cl)C1(F)CC1` (stereo not drawn) [I-438]: the LogP was 2.39^[a].

For `CCC(O)(Cn1cncc1C#N)c1ccccc1C(F)(F)F` (stereo not drawn) [I-329], the LogP was 2.27^[a].

Take `CC(O)(Cn1cncc1C(F)(F)F)c1ccc(Oc2ccc(Cl)cc2)cc1Cl` (stereo not drawn) [I-183]: the LogP was 4.25^[a].

For `N#Cc1cncn1CC(O)(c1ccc(Cl)c(F)c1Cl)C1(Cl)CC1` (stereo not drawn) [I-617], the LogP was 2.64^[a].

With `N#Cc1cncn1CC(O)(C#CCC1CCCCC1)C1(F)CC1` (stereo not drawn) [I-539], the LogP was 3.11^[a].

As for `OC(Cn1cncc1Cl)c1ccc(Oc2ccc(I)cc2)cc1Cl` (stereo not drawn) [I-08], the LogP is 2.94^[a].

`OC(CCC1CCCC1)(Cn1cncc1C(F)(F)F)C1(Cl)CC1` (stereo not drawn) [I-674]: the LogP is 4.10^[a].

As for `CC(O)(Cn1cncc1F)c1ccc(Oc2ccc(Cl)cc2)cc1Cl` (stereo not drawn) [I-194], the LogP is 2.34^[a].

Turning to `N#Cc1cncn1CC(O)(c1c(F)ccc(Cl)c1Cl)C1(F)CC1` (stereo not drawn) [I-565], the LogP is 2.39^[a].

In the case of `CC(O)(Cn1cncc1Br)c1ccc(Oc2ccc(Br)cc2)cc1Br` (stereo not drawn) [I-184], the LogP is 3.06^[a].

For the molecule `CC(C)C(O)(Cn1cncc1C#N)c1ccc(F)cc1Br` (stereo not drawn) [I-424], the LogP is 2.69^[a].

On to `CC(C)(C)CC(O)(Cn1cncc1C#N)c1ccc(F)cc1Cl` (stereo not drawn) [I-259], for which the LogP is 3.39^[a].

In the case of `N#Cc1cncn1CC(O)(CCC1CCCC1)C1(F)CC1` (stereo not drawn) [I-598], the LogP was 3.00^[a].

Take `N#Cc1cncn1CC(O)(c1ccc(Cl)cc1F)C1(Cl)CC1` (stereo not drawn) [I-358]: the LogP is 2.57^[a].

On to `N#Cc1cncn1CC(O)(c1ccc(Cl)c(Br)c1)C1(F)CC1` (stereo not drawn) [I-538], for which the LogP is 2.71^[a].

For the molecule `N#Cc1cncn1CC(O)(c1ccc(Cl)c(F)c1)C1(F)CC1` (stereo not drawn) [I-446], the LogP was 2.44^[a].

Regarding `N#Cc1cncn1CC(O)(c1ccc(F)c(Cl)c1Cl)C1(F)CC1` (stereo not drawn) [I-624], the LogP is 2.45^[a].

As to `N#Cc1cncn1CC(O)(c1cc(F)cc(F)c1)C1(F)CC1` (stereo not drawn) [I-473], the LogP is 2.14^[a].

On to `N#Cc1cncn1CC(O)(c1c(F)cc(Cl)cc1F)C1(F)CC1` (stereo not drawn) [I-519], for which the LogP was 2.36^[a].

On to `Cc1ccc(Oc2ccc(C(O)Cn3cncc3Cl)c(Cl)c2)cc1` (stereo not drawn) [I-02], for which the LogP was 2.50^[a].

For `N#Cc1cncn1CC(O)(CC1CC1)c1cc(F)cc(Cl)c1` (stereo not drawn) [I-497], the LogP was 2.54^[a].

On to `N#Cc1cncn1CC(O)(CC1CC1)c1cc(F)c(F)c(F)c1` (stereo not drawn) [I-501], for which the LogP is 2.51^[a].

For the molecule `N#Cc1cncn1CC(O)(c1ccc(Cl)c(F)c1F)C1(F)CC1` (stereo not drawn) [I-637], the LogP was 2.41^[a].

`N#Cc1cncn1CC(O)(c1ccc(F)cc1F)C1CCCC1` (stereo not drawn) [I-478]: the LogP is 2.78^[a].

As to `N#Cc1cncn1CC(O)c1ccc(Oc2ccc(Br)cc2)nc1C(F)(F)F` (stereo not drawn) [I-128], the LogP was 3.09^[a].

With `N#Cc1cncn1CC(O)(c1cc(F)cc(Cl)c1Cl)C1(F)CC1` (stereo not drawn) [I-568], the LogP is 2.49^[a].

On to `Cc1ccc(C#CC(O)(Cn2cncc2C#N)C2(F)CC2)cc1` (stereo not drawn) [I-373], for which the LogP was 2.52^[a].

`CC(O)(Cn1cncc1C#N)c1ccc(Oc2ccc(Cl)cc2)cc1F` (stereo not drawn) [I-188]: the LogP is 3.20^[a].

With `N#Cc1cncn1CC(O)(c1ccc(F)c(Cl)c1Cl)C1(Cl)CC1` (stereo not drawn) [I-618], the LogP was 2.58^[a].

In the case of `CC(O)(Cn1cncc1Cl)c1ccc(Oc2ccc(Cl)cc2)nc1C(F)(F)F` (stereo not drawn) [I-180], the LogP is 2.63^[a].

As for `N#Cc1cncn1CC(O)(C#CC1(c2ccccc2)CC1)C1(Cl)CC1` (stereo not drawn) [I-606], the LogP is 2.90^[a].

On to `N#Cc1cncn1CC(O)c1ccc(Oc2ccc(C(F)(F)F)cc2)nc1C(F)(F)F` (stereo not drawn) [I-149], for which the LogP is 3.13^[a].

Turning to `COC(Cn1cncc1C#N)c1ccc(Oc2ccc(Br)cc2)cc1Br` (stereo not drawn) [I-63], the LogP is 4.20^[a].

Regarding `N#Cc1cncn1CC(O)c1ccc(Oc2ccc(Br)cc2)cc1C(F)(F)F` (stereo not drawn) [I-36], the LogP is 3.46^[a].

In the case of `CC(O)(Cn1cncc1Cl)c1ccc(Oc2ccc(Cl)cc2)cc1Cl` (stereo not drawn) [I-167], the LogP is 2.86^[a].

On to `CC(C)(C)CC(O)(Cn1cncc1C#N)c1cccc(F)c1Cl` (stereo not drawn) [I-368], for which the LogP is 3.15^[a].

For the molecule `CC(=O)c1cncn1CC(C)(O)c1cnc(Oc2ccc(C(F)(F)F)cc2)cc1Cl` (stereo not drawn) [I-246], the LogP was 2.76^[a].

For `OC(Cn1cncc1Cl)c1cnc(Oc2ccc(Cl)cc2)cc1C(F)(F)F` (stereo not drawn) [I-25], the LogP is 2.55^[a].

Regarding `OC(Cn1cncc1Br)c1ccc(Oc2ccc(Cl)cc2)cc1` (stereo not drawn) [I-18], the LogP was 2.23^[a].

In the case of `Cc1ccc(C(O)(Cn2cncc2C#N)C2(Cl)CC2)c(Cl)c1` (stereo not drawn) [I-331], the LogP was 2.58^[a].

As for `CC(O)(Cn1cncc1Cl)c1ccc(Oc2ccc(Br)nc2)cc1Cl` (stereo not drawn) [I-203], the LogP is 2.11^[a].

With `N#Cc1cncn1CC(O)(CC1CC1)c1c(F)cccc1F` (stereo not drawn) [I-513], the LogP is 2.18^[a].

With `CC(O)(Cn1cncc1Cl)c1cnc(Oc2ccc(Cl)cc2)cc1Br` (stereo not drawn) [I-177], the LogP is 2.48^[a].

For `N#Cc1cncn1CC(O)(c1ccc(F)cc1)C1(Cl)CC1` (stereo not drawn) [I-248], the LogP is 2.21^[a].

On to `N#Cc1cncn1CC(O)(c1cc(Cl)cc(Cl)c1Cl)C1(F)CC1` (stereo not drawn) [I-612], for which the LogP is 2.66^[a].

`CC(O)(Cn1cncc1F)c1cnc(Oc2ccc(C(F)(F)F)cc2)cc1Br` (stereo not drawn) [I-243]: the LogP was 2.36^[a].

On to `CC(C)(C)C(O)(Cn1cncc1C#N)c1ccc(Cl)cc1` (stereo not drawn) [I-284], for which the LogP is 2.74^[a].

For `N#Cc1cncn1CC(O)(c1cc(Cl)ccc1Cl)C1(F)CC1` (stereo not drawn) [I-623], the LogP is 2.39^[a].

As to `N#Cc1cncn1CC(O)(CC1CC1)c1cc(F)cc(F)c1` (stereo not drawn) [I-502], the LogP was 2.29^[a].

Turning to `CCOC(Cn1cncc1C#N)c1ccc(Oc2ccc(Br)cc2)cc1C(F)(F)F` (stereo not drawn) [I-91], the LogP is 4.69^[a].

With `CC(O)(Cn1cncc1Br)c1ccc(Oc2ccc(Cl)cc2)cc1` (stereo not drawn) [I-165], the LogP was 2.30^[a].

For `CC(O)(Cn1cncc1C#N)c1cnc(Oc2ccc(Br)cc2)cc1C(F)F` (stereo not drawn) [I-258], the LogP is 2.68^[a].

Consider `N#Cc1cncn1CC(O)(c1ccc(C#CC2CCCC2)cc1F)C1(F)CC1` (stereo not drawn) [I-644], for which the LogP is 3.74^[a].

For the molecule `N#Cc1cncn1CC(O)(CC1CC1)c1cc(Cl)ccc1F` (stereo not drawn) [I-516], the LogP is 2.43^[a].

On to `CCCCC(O)(Cn1cncc1C#N)c1ccccc1Br` (stereo not drawn) [I-283], for which the LogP was 2.89^[a].

As to `OC(Cn1cncc1Cl)c1ccc(Oc2ccccc2)cc1F` (stereo not drawn) [I-30], the LogP is 1.99^[a].

Consider `COC(Cn1cncc1C(F)(F)F)c1ccc(Oc2ccc(Cl)cc2)cc1F` (stereo not drawn) [I-93], for which the LogP is 4.34^[a].

With `N#Cc1cncn1CC(O)(C#CCC1CCCCC1)CC1CC1` (stereo not drawn) [I-593], the LogP is 3.33^[a].

For `OC(Cn1cncc1Cl)c1ccc(Oc2ccc(Cl)cn2)cc1Cl` (stereo not drawn) [I-37], the LogP is 1.98^[a].

Regarding `COc1nc(Cl)ccc1C(O)(Cn1cncc1C#N)C1(Cl)CC1` (stereo not drawn) [I-561], the LogP was 2.51^[a].

Regarding `C#CC(O)(Cn1cncc1C#N)C1(F)CC1` (stereo not drawn) [I-654], the LogP is 1.11^[a].

With `CC(O)(Cn1cncc1C#N)c1cnc(Oc2ccc(C(F)F)cc2)cc1C(F)(F)F` (stereo not drawn) [I-341], the LogP was 2.80^[a].

In the case of `N#Cc1ccc(Oc2ccc(C(O)Cn3cncc3Cl)c(Cl)c2)cc1` (stereo not drawn) [I-06], the LogP is 2.03^[a].

Staying with this data set, now noted: reversed phase HPLC column; method [a]: LC-UV, acidic range, 0.1% formic acid in water and acetonitrile as eluent (linear gradient from 10% to 95% acetonitrile).
`N#Cc1cncn1CC(=O)c1cccc(Cl)c1F` [IX-148] showed a chromatographic logP of 2.02.

Regarding `O=C(Cn1cncc1Cl)c1ccc(O)cc1Cl` [IX-145], the chromatographic logP was determined as 0.97.

Source of the values: patent US20200031778A1, “NOVEL 5-SUBSTITUTED IMIDAZOLYLMETHYL DERIVATIVES” (Bayer CropScience Aktiengesellschaft, priority 2016, published 2020).
